Experimental findings from US20220009906A1, “ISOINDOLIN-1-ONE DERIVATIVES USEFUL AS GRK2 INHIBITORS” (priority 2020, published 2022) are described below.

As usually defined, the IC50 is the concentration that gives 50% inhibition. Low readings indicate higher potency, high ones lower potency.

This assay concerns the target T1, GRK2 (Homo sapiens, UniProt P25098).
T1 sequence (P25098 1-689): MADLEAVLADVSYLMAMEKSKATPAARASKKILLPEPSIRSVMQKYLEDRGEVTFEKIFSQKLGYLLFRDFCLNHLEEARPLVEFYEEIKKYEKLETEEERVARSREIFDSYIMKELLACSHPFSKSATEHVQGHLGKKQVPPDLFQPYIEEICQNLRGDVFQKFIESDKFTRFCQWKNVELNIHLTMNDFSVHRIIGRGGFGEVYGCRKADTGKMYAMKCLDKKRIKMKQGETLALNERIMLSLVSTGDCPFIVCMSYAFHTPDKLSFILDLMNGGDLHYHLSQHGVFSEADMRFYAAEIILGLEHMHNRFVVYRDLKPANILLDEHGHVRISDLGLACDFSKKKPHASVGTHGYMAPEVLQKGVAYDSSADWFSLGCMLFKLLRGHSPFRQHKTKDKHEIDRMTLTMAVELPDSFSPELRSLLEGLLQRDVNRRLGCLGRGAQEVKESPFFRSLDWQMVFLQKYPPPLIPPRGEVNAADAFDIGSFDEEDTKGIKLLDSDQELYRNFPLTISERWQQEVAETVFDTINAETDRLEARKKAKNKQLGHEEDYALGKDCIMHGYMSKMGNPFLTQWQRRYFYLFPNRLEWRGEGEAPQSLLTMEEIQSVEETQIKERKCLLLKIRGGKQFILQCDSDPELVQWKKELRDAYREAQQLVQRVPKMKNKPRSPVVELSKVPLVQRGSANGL
Nature of the assay: hGRK2 LANCE Ultra In Vitro Assay. To be noted: Biological Example 1 GRK2 Lancer IC50 (μM), 10 nM GRK2; 30 or 600 μM ATP (not stated which); multiple measurements listed individually. The format is biochemical. How it is done:
hGRK2 LANCE Ultra In Vitro Assay
G-protein coupled receptor kinases (GR Kinases) desensitize activated G-protein coupled receptors (GPCRs), by phosphorylation of cytoplasmic loops or carboxyl-terminal tails of GPCRs. GRK2 is one of the 6 different GR kinases and is implicated in heart failure and diabetes.
This assay is sensitive and requires as low as 10 nM enzyme, in a total volume of 10 μL. In addition, the ATP concentration can be varied over a broad range, without interfering with the assay or changing the assay condition. […] Testing inhibitors routinely at both high and low ATP concentrations also enables identification of potential non-ATP competitive inhibitors.
Paroxetine was used as the reference compound in this assay.
Test compounds were dissolved in DMSO at 1 mM and were 3-fold serial diluted. The compound DMSO solutions were then added (100 nL) into a plate well using an acoustic dispenser. To each well was then added 20 nM GRK2 (5 μL) in assay buffer (20 mM HEPES, pH 7.5, 10 mM MgCl2, 0.001% Tween-20®). The plate was sealed and centrifuged at 1000 rpm for 1 min. The plate and wells containing a mixture of GRK2 and test compound were incubated at ambient temperature for 30 min (prior to initializing the enzymatic reaction).
Enzyme reactions were initiated by the addition of 4.9 μL Substrates/Eu-Ab mix to each well. […] Final concentrations of reagents in the assays were as follows: 20 mM HEPES, pH 7.5; 10 mM MgCl2; 0.001% Tween-20® (w/v); 30 or 600 μM ATP; 200 nM ULight-peptide; 4 nM Eu-Ab; 10 nM GRK2; and 1% DMSO.
The plates were sealed and centrifuged at 1000 rpm for 1 min. For reactions at low ATP concentration (30 μM), reaction mixtures were incubated at ambient temperature for 120 min. For reactions at high ATP concentration (600 μM), reaction mixtures were incubated at ambient temperature for 60 min.
The enzyme reactions were quenched by addition of 10 μL of 12 mM EDTA in 1× LANCE detection solution to each well. The plates were then incubated at ambient temperature for 30 min. Time-resolved fluorescence signal of reactions were read on an EnVision or PHERAstar plate reader with the following parameters: Excitation wavelength=337 nm; emission wavelength (donor)=620 nm; emission wavelength (acceptor)=665 nm.
The raw HTRF data were converted to % active as follows:
% active=(sample−NC)/(PC−NC)*100
where NC is the mean of negative control (reactions without GRK2), and PC is the mean of positive control (reactions with GRK2 but without inhibitor). IC50 values were determined from a 4-parameter fit, using the following equation:
Y=Bottom+(Top−Bottom)/(1+10^((Log IC50−X)*Hill slope))
where X=log10 of the compound concentration.
Background: Time-resolved FRET reads energy transfer from a long-lived donor to a nearby acceptor.
In turn, `COc1cccc(CN2C(=O)c3cc(-c4cn[nH]c4)ccc3C23CCC(OC)C3)c1` (centres unmarked) [Compound 170] came in with an IC50 of 0.006 µM.
`COc1cccc(CN2C(=O)c3cc(-c4cn[nH]c4)ccc3C23CCCC3N)c1` (centres unmarked) [Compound 123, 2-amino-2′-(3-methoxybenzyl)-5′-(1H-pyrazol-4-yl)spiro[cyclopentane-1,1′-isoindolin]-3′-one] returned an IC50 of 0.015 µM.
The figure for `O=C1c2cc(-c3cn[nH]c3)ccc2CN1Cc1cccc(OC2CCOC2)c1` (centres unmarked) [Compound 90] is 0.137 µM; for `CCOc1cccc([C@@H](CO)N2Cc3ccc(-c4cn[nH]c4)cc3C2=O)c1` [Compound 114] it is 0.006 µM; for `COc1cccc(C(CO)N2Cc3ccc(-c4cn[nH]c4)cc3C2=O)c1` (single isomer, unassigned) [Compound 172] it is 0.148 µM.
In the case of `CCOc1cccc([C@H](C(=O)OC)N2Cc3ccc(-c4cn[nH]c4)cc3C2=O)c1` [Compound 73] it was 1.39 µM; in that of `COc1cccc(C(C(=O)O)N2Cc3ccc(-c4cn[nH]c4)cc3C2=O)c1` (centres unmarked) [Compound 71], 0.815 µM.
In the case of `COc1cccc(CN2C(=O)c3cc(-c4cn[nH]c4)ccc3C23CCC(O)C3O)c1` (centres unmarked) [Compound 102, 2,3-dihydroxy-2′-(3-methoxybenzyl)-5′-(1H-pyrazol-4-yl)spiro[cyclopentane-1,1′-isoindolin]-3′-one] it was 0.006 µM; in that of `COc1cccc(C(CO)N2Cc3c(cc(-c4cn[nH]c4)cc3-c3cncnc3)C2=O)c1` (centres unmarked) [Compound 158, 2-(2-hydroxy-1-(3-methoxyphenyl)ethyl)-6-(1H-pyrazol-4-yl)-4-(pyrimidin-5-yl)isoindolin-1-one], 0.027 µM; in that of `COc1cccc([C@@H](C)N2C(=O)c3cc(-c4cn[nH]c4)ccc3C2CCO)c1` (stereo partly drawn) [Compound 49, 3-(2-hydroxyethyl)-2-((R)-1-(3-methoxyphenyl)ethyl)-6-(1H-pyrazol-4-yl)isoindolin-1-one], < 0.005 µM.
`COc1cccc(-c2cc(-c3cn[nH]c3)cc3c2CN([C@H](C)c2cccc(OC)c2)C3=O)c1` [Compound 140, (R)-4-(3-methoxyphenyl)-2-(1-(3-methoxyphenyl)ethyl)-6-(1H-pyrazol-4-yl)isoindolin-1-one] came in with an IC50 of 0.265 µM.
Regarding `COc1cccc(C(Cc2nnn[nH]2)N2Cc3ccc(-c4cn[nH]c4)cc3C2=O)c1` (centres unmarked) [Compound 84], 0.167 µM corresponded to half-maximal inhibition (IC50).
In the case of `COc1cccc(CN2C(=O)c3cc(-c4cn[nH]c4)ccc3C2CC(=O)O)c1` (centres unmarked) [Compound 61, 2-(2-(3-Methoxybenzyl)-3-oxo-5-(1H-pyrazol-4-yl)isoindolin-1-yl)acetic acid] it was 0.012 µM.
In the case of `COc1cccc(CN2C(=O)c3cc(-c4cn[nH]c4)ccc3C23CCC2NC(=O)OC23)c1` (centres unmarked) [Compound 150, 2′-(3-methoxybenzyl)-5′-(1H-pyrazol-4-yl)-3a,4,5,6a-tetrahydrospiro[cyclopenta[d]oxazole-6,1′-isoindoline]-2,3′(3H)-dione] it was 0.013 µM; in that of `COc1cncc(-c2cc(-c3cn[nH]c3)cc3c2CN([C@H](C)c2cccc(OC)c2)C3=O)c1` [Compound 126, (R)-2-(1-(3-methoxyphenyl)ethyl)-4-(5-methoxypyridin-3-yl)-6-(1H-pyrazol-4-yl)isoindolin-1-one], 0.024 µM; in that of `CCOc1cccc(C(CO)N2Cc3ccc(-c4cn[nH]c4)cc3C2=O)c1` (centres unmarked) [Compound 53, 2-(2-Hydroxy-1-(3-ethoxyphenyl)ethyl)-6-(1H-pyrazol-4-yl)isoindolin-1-one], 0.008 µM.
`COc1cccc([C@@H](C)N2Cc3c(cc(-c4cn[nH]c4)cc3-c3cccnc3N)C2=O)c1` [Compound 125, (R)-4-(2-aminopyridin-3-yl)-2-(1-(3-methoxyphenyl)ethyl)-6-(1H-pyrazol-4-yl)isoindolin-1-one] displayed an IC50 of 0.022 µM.
The figure for `COc1cccc([C@@H](C)N2Cc3c(cc(-c4cn[nH]c4)cc3-c3cc(C)nc(C)c3)C2=O)c1` [Compound 132, (R)-4-(2,6-dimethylpyridin-4-yl)-2-(1-(3-methoxyphenyl)ethyl)-6-(1H-pyrazol-4-yl)isoindolin-1-one] is 0.005 µM; for `COc1cccc(C(c2nn[nH]n2)N2Cc3ccc(-c4cn[nH]c4)cc3C2=O)c1` (centres unmarked) [Compound 94, 2-((3-methoxyphenyl)(2H-tetrazol-5-yl)methyl)-6-(1H-pyrazol-4-yl)isoindolin-1-one] it is 0.652 µM.
In the case of `COc1cccc(CN2C(=O)c3cc(-c4cn[nH]c4)ccc3C23CCC2OC(=O)NC23)c1` (centres unmarked) [Compound 151, 2′-(3-methoxybenzyl)-5′-(1H-pyrazol-4-yl)-3a,5,6,6a-tetrahydrospiro[cyclopenta[d]oxazole-4,1′-isoindoline]-2,3′(3H)-dione] it was 0.011 µM.
In the case of `CCOc1cccc(CN2C(=O)c3cc(-n4cn[nH]c4=O)ccc3C2(C)C)c1` [Compound 45, 2-(3-ethoxybenzyl)-3,3-dimethyl-6-(5-oxo-1,5-dihydro-4H-1,2,4-triazol-4-yl)isoindolin-1-one] it was 1.62 µM; in that of `O=C1c2cc(-c3cn[nH]c3)ccc2CN1Cc1ccc(F)s1` [Compound 43, 2-((5-Fluorothiophen-2-yl)methyl)-6-(1H-pyrazol-4-yl)isoindolin-1-one], 0.088 µM.
The compound `COc1cccc(CN2C(=O)c3cc(-c4cn[nH]c4)ccc3C23CCc2c(O)cccc23)c1` (centres unmarked) [Compound 89, 4-hydroxy-2′-(3-methoxybenzyl)-5′-(1H-pyrazol-4-yl)-2,3-dihydrospiro[indene-1,1′-isoindolin]-3′-one] returned an IC50 of 0.144 µM.
The figure for `COc1cccc(C(CC(=O)O)N2Cc3ccc(-c4cn[nH]c4)cc3C2=O)c1` (centres unmarked) [Compound 100, 3-(3-methoxyphenyl)-3-(1-oxo-6-(1H-pyrazol-4-yl)isoindolin-2-yl)propanoic acid] is 6.24 µM.
In turn, `COc1cccc([C@@H](C)N2Cc3c(cc(-c4cn[nH]c4)cc3-c3ccc(C(F)(F)F)nc3)C2=O)c1` [Compound 145, (R)-2-(1-(3-methoxyphenyl)ethyl)-6-(1H-pyrazol-4-yl)-4-(6-(trifluoromethyl)pyridin-3-yl)isoindolin-1-one] gave an IC50 of 0.285 µM.
The figure for `COc1cccc(CN2C(=O)c3cc(-c4cn[nH]c4)ccc3C2Cc2nn[nH]n2)c1` (centres unmarked) [Compound 93, 3-((2H-tetrazol-5-yl)methyl)-2-(3-methoxybenzyl)-6-(1H-pyrazol-4-yl)isoindolin-1-one] is 0.02 µM.
The figure for `COc1cccc(CN2C(=O)c3cc(-c4cn[nH]c4)ccc3C23CCC(C(=O)O)C3)c1` (centres unmarked) [Compound 107, 2′-(3-methoxybenzyl)-3′-oxo-5′-(1H-pyrazol-4-yl)spiro[cyclopentane-1,1′-isoindoline]-3-carboxylic acid] is 0.005 µM; for `CCOc1cccc(CN2C(=O)c3cc(-c4cn[nH]c4)ccc3C2CC#N)c1` (centres unmarked) [Compound 65, 2-(2-(3-ethoxybenzyl)-3-oxo-5-(1H-pyrazol-4-yl)isoindolin-1-yl)acetonitrile] it is 0.039 µM.
In the case of `COc1cccc([C@@H](C)N2Cc3c(cc(-c4cn[nH]c4)cc3-c3cncnc3)C2=O)c1` [Compound 130, 2-[(1R)-1-(3-methoxyphenyl)ethyl]-6-(1H-pyrazol-4-yl)-4-pyrimidin-5-yl-isoindolin-1-one], the IC50 is < 0.005 µM.
